The target in one assay is T1, human mAChR M4 (Homo sapiens, UniProt P08173).
T1 construct: expressed in transfected cells; host or cells: CHO-K1 (ATCC), stably co-expressing chimeric G protein Gqi5
T1 sequence (P08173 1-479): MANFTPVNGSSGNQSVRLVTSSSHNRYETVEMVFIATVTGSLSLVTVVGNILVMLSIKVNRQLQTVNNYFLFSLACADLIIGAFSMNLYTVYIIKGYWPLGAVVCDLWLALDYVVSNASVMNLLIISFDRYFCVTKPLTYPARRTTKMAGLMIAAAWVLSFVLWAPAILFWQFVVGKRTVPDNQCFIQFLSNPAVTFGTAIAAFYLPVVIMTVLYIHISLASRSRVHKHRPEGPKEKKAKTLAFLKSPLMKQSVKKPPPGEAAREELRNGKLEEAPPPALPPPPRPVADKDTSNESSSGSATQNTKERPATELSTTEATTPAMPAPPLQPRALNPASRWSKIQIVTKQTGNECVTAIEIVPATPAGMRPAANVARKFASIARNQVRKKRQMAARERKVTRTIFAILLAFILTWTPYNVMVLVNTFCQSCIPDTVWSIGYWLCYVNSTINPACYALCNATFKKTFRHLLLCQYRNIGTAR
The experiment in a line: mAChR M4 cell-based functional assay (calcium mobilization, EC80 acetylcholine), human M4. The following applies: for Emin: human M4, % ACh maximum at 30 μM. The gist of the method:
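CHO-K1 cells stably expressing human M4 with chimeric Gqi5; intracellular calcium rise read on FDSS as fluorescence static ratio at 1 Hz. Compounds in 10-point 1:3 dilution series; IC50 taken as concentration-dependent decrease of the EC80 acetylcholine response, four-parameter logistic fit.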
(Calcium assays in cells follow changes in intracellular calcium, usually with a dye or a luminescent sensor.)

The target of the next assay is T2, rat mAChR M4 (Rattus norvegicus, UniProt P08485).
T2 construct: expressed in transfected cells; host or cells: CHO-K1 (ATCC), stably co-expressing chimeric G protein Gqi5
T2 sequence (P08485 1-478): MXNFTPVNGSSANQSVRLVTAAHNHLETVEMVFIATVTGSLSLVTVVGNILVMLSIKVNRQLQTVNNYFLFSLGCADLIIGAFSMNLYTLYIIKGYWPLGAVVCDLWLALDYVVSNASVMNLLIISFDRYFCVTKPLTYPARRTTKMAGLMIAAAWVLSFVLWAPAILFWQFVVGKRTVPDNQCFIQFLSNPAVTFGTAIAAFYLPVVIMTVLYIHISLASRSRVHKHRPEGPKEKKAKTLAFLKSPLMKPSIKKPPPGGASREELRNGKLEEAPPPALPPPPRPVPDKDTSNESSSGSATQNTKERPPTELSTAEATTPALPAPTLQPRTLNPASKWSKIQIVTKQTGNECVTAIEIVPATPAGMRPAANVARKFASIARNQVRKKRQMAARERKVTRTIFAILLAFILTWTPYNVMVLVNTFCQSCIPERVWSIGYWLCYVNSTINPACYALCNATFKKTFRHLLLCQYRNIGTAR
The assay is described as follows: mAChR M4 cell-based functional assay (calcium mobilization, EC80 acetylcholine), rat M4. The following applies: Table 10; for IC50: M4/Gqi5/CHO-K1 cells, decrease of EC80 acetylcholine response. The procedure: Human or rat M4 cDNA, along with the chimeric G protein Gqi5, were transfected into Chinese hamster ovary (CHO-K1) cells purchased from the American Type Culture Collection using Lipofectamine2000. M4/Gqi5/CHO cells were grown in Ham's F-12 medium containing 10% heat-inactivated fetal bovine serum (FBS), 20 mM HEPES, 500 μg/mL G418 sulfate, and 200 μg/mL Hygromycin B.
For high throughput measurement of agonist-evoked increases in intracellular calcium, CHO-K1 cells stably expressing muscarinic receptors were plated in growth medium lacking G418 and hygromycin at 15,000 cells/20 μL/well in Greiner 384-well black-walled, tissue culture (TC)-treated, clear-bottom plates (VWR). Cells were incubated overnight at 37° C. and 5% CO2. The next day, cells were washed using an ELX 405 (BioTek) with assay buffer; the final volume was then aspirated to 20 μL. Next, 20 μL of a 2.3 μM stock of Fluo-4/acetoxymethyl ester (Invitrogen, Carlsbad, CA), prepared as a 2.3 mM stock in DMSO and mixed in a 1:1 ratio with 10% (w/v) Pluronic F-127 and diluted in assay buffer, was added to the wells and the cell plates were incubated for 50 min at 37° C. and 5% CO2. Dye was removed by washing with the ELX 405 and the final volume was aspirated to 20 μL. Compound master plates were formatted in a 10 point concentration-response curve (CRC) format (1:3 dilutions) in 100% DMSO with a starting concentration of 10 or 1 mM using a BRAVO liquid handler (Agilent). Test compound CRCs were then transferred to daughter plates (240 nL) using the Echo acoustic plate reformatter (Labcyte, Sunnyvale, CA) and then diluted into assay buffer (40 μL) to a 2× stock using a Thermo Fisher Combi (Thermo Fisher Scientific, Waltham, MA).
Calcium flux was measured using the Functional Drug Screening System (FDSS) 6000 or 7000 (Hamamatsu Corporation, Tokyo, Japan) as an increase in the fluorescent static ratio. Compounds were applied to cells (20 μL, 2×) using the automated system of the FDSS at 2 seconds into the protocol and the data were collected at 1 Hz. At 143 s, 10 μL of an EC20 concentration of the muscarinic receptor agonist acetylcholine was added (5×), followed by the addition of 12 μL of an EC80 concentration of acetylcholine at the 268 s time point (5×). Agonist activity was analyzed as a concentration-dependent increase in calcium mobilization upon compound addition. Positive allosteric modulator activity was analyzed as a concentration-dependent increase in the EC20 acetylcholine response. Antagonist activity was analyzed as a concentration-dependent decrease in the EC80 acetylcholine response; for the purposes of the tables herein, an IC50 (inhibitory concentration 50) was calculated as a concentration-dependent decrease of the response elicited by an EC80 concentration of acetylcholine. Concentration-response curves were generated using a four-parameter logistical equation in XLFit curve fitting software (IDBS, Bridgewater, NJ) for Excel (Microsoft, Redmond, WA) or Prism (GraphPad Software, Inc., San Diego, CA) or the Dotmatics software platform (Dotmatics, Bishop's Stortford, UK).

The mark [1] stands for this setting: Table 10, M4/Gqi5/CHO-K1 cells, decrease of EC80 acetylcholine response.
The mark [2] stands for this setting: Table 9, M4/Gqi5/CHO-K1 cells, decrease of EC80 acetylcholine response.

As to `CC(=O)Nc1ccc(-c2ccc(N[C@H]3C[C@@H]4CN(CCC(C)(C)C)C[C@@H]4C3)nn2)cc1` [Compound 140, N-[4-[6-[[(3aR,5s,6aS)-2-(3,3-dimethylbutyl)-3,3a,4,5,6,6a-hexahydro-1H-cyclopenta[c]pyrrol-5-yl]amino]pyridazin-3-yl]phenyl]acetamide], on human mAChR M4 (Table 10), the “Human M4 Emin” value was determined as 5%. In addition, the IC50 (in general, the concentration that inhibits the measured activity by half) at human mAChR M4 (setting [1]) is 0.00108 µM; on rat mAChR M4, 17.1 nM. Besides, the “Rat M4 Emin” value on rat mAChR M4 amounted to 3%.

Turning to `CC(=O)Nc1ccc(-c2ccc(O[C@H]3C[C@@H]4CN(CCC(C)(C)C)C[C@@H]4C3)nn2)cc1` [Compound 129, N-[4-[6-[[(3aR,5s,6aS)-2-(3,3-dimethylbutyl)-3,3a,4,5,6,6a-hexahydro-1H-cyclopenta[c]pyrrol-5-yl]oxy]pyridazin-3-yl]phenyl]acetamide], the “Human M4 Emin” value at human mAChR M4 (Table 10) came to 4%. In addition, the IC50 on human mAChR M4 (setting [1]) was determined as 0.0912 µM. On rat mAChR M4, the “Rat M4 Emin” value is on record as 4% and the IC50 was found to be 195 nM.

Take `COc1ccc(-c2ccc(N[C@H]3C[C@@H]4CN(CC5CCOCC5)C[C@@H]4C3)nn2)cc1F` [Compound 222, (3aR,5s,6aS)-N-[6-(3-fluoro-4-methoxy-phenyl)pyridazin-3-yl]-2-(tetrahydropyran-4-ylmethyl)-3,3a,4,5,6,6a-hexahydro-1H-cyclopenta[c]pyrrol-5-amine]: on human mAChR M4 (Table 10), the “Human M4 Emin” value was 3%. For the same compound, the IC50 at human mAChR M4 (setting [1]) amounted to 0.005 µM; at rat mAChR M4 it was 63.6 nM. The “Rat M4 Emin” value on rat mAChR M4 was 6%.

On to `CC(C)(C)CCN1C[C@H]2C[C@H](Oc3ccc(Cl)nn3)C[C@H]2C1` [Compound 128, (3aR,5s,6aS)-5-(6-chloropyridazin-3-yl)oxy-2-(3,3-dimethylbutyl)-3,3a,4,5,6,6a-hexahydro-1H-cyclopenta[c]pyrrole], for which, on human mAChR M4 (Table 10), the “Human M4 Emin” value was determined as 5%. Further, the values for the IC50 on human mAChR M4 (setting [1]) and at rat mAChR M4 were 1.09 µM and 6330 nM, respectively. For the same compound, the “Rat M4 Emin” value at rat mAChR M4 is recorded as 17%.

Take `CC(C)(C)CCN1C[C@H]2C[C@H](Nc3ccc(-c4ccc(F)cc4Cl)nn3)C[C@H]2C1` [Compound 141, (3aR,5s,6aS)-N-[6-(2-chloro-4-fluoro-phenyl)pyridazin-3-yl]-2-(3,3-dimethylbutyl)-3,3a,4,5,6,6a-hexahydro-1H-cyclopenta[c]pyrrol-5-amine]: on human mAChR M4 (Table 10), the “Human M4 Emin” value is given as 4%. Moreover, the values for the IC50 on human mAChR M4 (setting [1]) and on rat mAChR M4 were 0.0148 µM and 138 nM, respectively. Moreover, at rat mAChR M4, the “Rat M4 Emin” value is 3%.

`c1cc(-c2ccc(N[C@H]3C[C@@H]4CN(CC5CCOCC5)C[C@@H]4C3)nn2)cs1` [Compound 227, (3aR,5s,6aS)-2-(tetrahydropyran-4-ylmethyl)-N-[6-(3-thienyl)pyridazin-3-yl]-3,3a,4,5,6,6a-hexahydro-1H-cyclopenta[c]pyrrol-5-amine]: on human mAChR M4 (Table 10), the “Human M4 Emin” value is 5%. For the same compound, on human mAChR M4 (setting [1]), the IC50 worked out at 0.0084 µM. On rat mAChR M4, the “Rat M4 Emin” value was determined as 13% and the half-inhibitory concentration (IC50) was 2230 nM.

`CC(C)(C)CCN1C[C@H]2C[C@H](Oc3ccc(-c4cc(F)ccc4Cl)nn3)C[C@H]2C1` [Compound 137, (3aR,5s,6aS)-5-[6-(2-chloro-5-fluoro-phenyl)pyridazin-3-yl]oxy-2-(3,3-dimethylbutyl)-3,3a,4,5,6,6a-hexahydro-1H-cyclopenta[c]pyrrole]: the “Human M4 Emin” value at human mAChR M4 (Table 10) is on record as 3%. For the same compound, the IC50 on human mAChR M4 (setting [1]) worked out at 0.0198 µM. Further, at rat mAChR M4, the “Rat M4 Emin” value is 3% and the half-inhibitory concentration (IC50) amounted to 313 nM.

In the case of `F[C@@H]1CCN(c2ccc(N[C@H]3C[C@@H]4CN(CC5CCOCC5)C[C@@H]4C3)nn2)C1` [Compound 194, (3aR,5s,6aS)-N-[6-[(3S)-3-fluoropyrrolidin-1-yl]pyridazin-3-yl]-2-(tetrahydropyran-4-ylmethyl)-3,3a,4,5,6,6a-hexahydro-1H-cyclopenta[c]pyrrol-5-amine], the “Human M4 Emin” value on human mAChR M4 (Table 10) is 5%. Further, the IC50 at human mAChR M4 (setting [1]) worked out at 0.0125 µM.

`Fc1ccc(Cl)c(-c2ccc(OCC3C[C@@H]4CN(Cc5ccccc5)C[C@@H]4C3)nn2)c1` (stereo partly drawn) [Compound 114, (3aR,6aS)-2-benzyl-5-[[6-(2-chloro-5-fluoro-phenyl)pyridazin-3-yl]oxymethyl]-3,3a,4,5,6,6a-hexahydro-1H-cyclopenta[c]pyrrole]: on human mAChR M4 (setting [2]), the IC50 is 2.5 µM. Besides, the Emin at human mAChR M4 (Table 9) is given as 6.02%.

Turning to `CC(=O)Nc1ccc(-c2ccc(O[C@H]3C[C@@H]4CN(CC5CCCCC5)C[C@@H]4C3)nn2)cc1` [Compound 130, N-[4-[6-[[(3aR,5s,6aS)-2-(cyclohexylmethyl)-3,3a,4,5,6,6a-hexahydro-1H-cyclopenta[c]pyrrol-5-yl]oxy]pyridazin-3-yl]phenyl]acetamide], the “Human M4 Emin” value on human mAChR M4 (Table 10) came to 3%. Besides, the IC50 on human mAChR M4 (setting [1]) amounted to 0.0583 µM.

As to `Cc1cnn(C)c1-c1ccc(OCC2C[C@@H]3CN(Cc4ccc5c(c4)OCO5)C[C@@H]3C2)nn1` (stereo partly drawn) [Compound 91, (3aR,6aS)-2-(1,3-benzodioxol-5-ylmethyl)-5-[[6-(2,4-dimethylpyrazol-3-yl)pyridazin-3-yl]oxymethyl]-3,3a,4,5,6,6a-hexahydro-1H-cyclopenta[c]pyrrole], the IC50 on human mAChR M4 (setting [2]) came to 0.371 µM. The Emin on human mAChR M4 (Table 9) is reported as 4.18%.

In the case of “[(3aR,5r,6aS)-5-[6-(1,3-dimethylpyrazol-4-yl)pyridazin-3-yl]oxy-3,3a,4,5,6,6a-hexahydro-1H-cyclopenta[c]pyrrol-2-yl]-(1-adamantyl)methanone [Compound 60]”, the Emin at human mAChR M4 (Table 9) stood at 58.2%. Also, the IC50 on human mAChR M4 (Table 9, μM) was above 10 µM.

Take `CC(=O)Nc1ccc(-c2ccc(N[C@H]3C[C@@H]4CN(CCC(C)(C)C)C[C@@H]4C3)c(F)c2F)cc1` [Compound 148, N-[4-[4-[[(3aR,5s,6aS)-2-(3,3-dimethylbutyl)-3,3a,4,5,6,6a-hexahydro-1H-cyclopenta[c]pyrrol-5-yl]amino]-2,3-difluoro-phenyl]phenyl]acetamide]: the “Human M4 Emin” value at human mAChR M4 (Table 10) came to 4%. The half-inhibitory concentration (IC50) at human mAChR M4 (setting [1]) was determined as 0.997 µM.

The record behind these values is patent US12577234B2, “Antagonists of the muscarinic acetylcholine receptor M4” (Vanderbilt University, priority 2017, dated 2026).
